Measured values published in PMC12610274, “Identification of Marrubiin as a Cathepsin C Inhibitor for Treating Rheumatoid Arthritis” (Molecules, 2025).

Legend:
[1] = biological target: CTSC (Homo sapiens, UniProt P53634); experiment: Human recombinant CTSC isolated enzyme assay; format: biochemical; design: purchased R&D Systems; details: human recombinant CTSC, cell-free, 12-point dose-response; read-out: CTSC Enz (IC50: nM)
Method: Both recombinant CTSL and CTSC for in vitro cell-free-based enzymatic activity assay can be purchased from R&D Systems (Minneapolis, MN, USA), a biotechnology company. According to the standardized procedures and material ratios provided by R&D Systems, prepare the activation solution (25 mM MES + 5 mM DTT, pH 6.0) and the assay solution (25 mM MES + 50 mM NaCl + 5 mM DTT, pH 6.0) in advance for later use. Dilute the detection substrate H-Gly-Arg-AMC to a 200 µM solution with the assay solution for standby. Prepare the working solution of compounds to be tested using the assay solution, with the concentration of working solution being 10 times the final test concentration. Dilute CTSC and CTSL, respectively, with cold activation solution. Thoroughly mix the two activation solutions containing the proteins to achieve final concentrations of 300 nM for CTSL and 440 nM for CTSC. After co-incubation for 1 h, the activated CTSC treated with CTSL can be used for the enzymatic activity inhibition efficacy test of compounds. Dilute the activated CTSC to 4.4 nM with cold assay buffer. Incubate 4 μL of the activated CTSC with 1 μL of the compound working solution (test group) or 1 μL of blank assay solution (control group) at room temperature for 3 h. Then, add 5 μL of the detection substrate to achieve a final concentration of 100 μM. Mix 5 µL each of the assay solution and the substrate solution as the blank group. After 1 h, the absorbance of detection substrate was measured using a multifunctional microplate reader at excitation/emission wavelengths of 380 nm/460 nm. The inhibitory efficacy of molecules on enzyme activity was calculated based on the absorbance difference between test group and control group. […] Each group of tests mentioned above was independently repeated at least 3 times, and IC50 values were calculated using SPSS 10.0.

[2] = Cytotoxicity assay, U937 cell line; format: cell-based; details: human, U937 cells
Method: (§1) RAW264.7 cells and U937 cells in the logarithmic growth phase were counted and diluted, and the concentrations of the single-cell suspensions of the two types of cells were adjusted to 5 × 10^4 cells/mL and 3 × 10^4 cells/mL, respectively. After thorough mixing, the cells were seeded into a 96-well plate, with 100 μL of cell suspension added to each well. Prepare the working solution of test compounds using the corresponding medium as the solvent, with the concentration of working solution being 2 times the final test concentration (2.5 μM, 5 μM, 10 μM, 20 μM, and 40 μM). Twenty-four hours after cell seeding, the compound working solutions were added to the compound test wells, and the same volume of medium was added to the negative control wells, followed by continuous incubation for another 24 h. Only the wells with the same volume but without cells served as the blank control group. The CellTiter-Lumi™ luminescent cell viability assay kit (Beyotime Biotechnology, Shanghai, China, C0065XL) was used to detect cell viability according to the standard operating procedures. Each group of tests was independently repeated at least 3 times, and IC50 values were calculated using SPSS 10.0.

[3] = Cytotoxicity assay, RAW264.7 cell line; format: cell-based; details: mouse, RAW264.7 cells
Method: as §1

[4] = biological target: T1, intracellular CTSC (Homo sapiens, UniProt P53634); experiment: CTSC cell-based assay using the U937 cell line; details: read-out: Cell-Based Enz (IC50: nM)
T1 construct: endogenous in cells; host or cells: U937
Method: Cell-based CTSC enzymatic activity assays were performed in 96-well clear-bottom black microplates. […] The detection substrate, H-Gly-Arg-AFC, was diluted to 100 µM in serum-free medium and stored for later use. U937 cells in the logarithmic growth phase were harvested, washed with PBS, and counted. A single-cell suspension was prepared at a density of 1.0 × 10^6 cells/mL using serum-free medium. 30 µL of cell suspension was seeded into each well of the 96-well plate. To the test wells, 10 µL of the compound working solution was added, while 10 µL of serum-free medium was added to the control wells. The plate was pre-incubated in a cell culture incubator at 37 °C for 3 h. Subsequently, 10 µL of H-Gly-Arg-AFC was added to initiate the enzymatic reaction, and the plate was further incubated at 37 °C for 1 h. Fluorescence measurements were performed using a multimode microplate reader at excitation/emission wavelengths of 400/505 nm. Each group of tests was independently repeated at least 3 times, and IC50 values were calculated using SPSS 10.0.

Sequence of CTSC (P53634 25-134 limits assumed): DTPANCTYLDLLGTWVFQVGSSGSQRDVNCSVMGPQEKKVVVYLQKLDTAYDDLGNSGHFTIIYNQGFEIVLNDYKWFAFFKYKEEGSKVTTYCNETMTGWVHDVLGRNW
Sequence of CTSC (P53634 231-394 limits assumed): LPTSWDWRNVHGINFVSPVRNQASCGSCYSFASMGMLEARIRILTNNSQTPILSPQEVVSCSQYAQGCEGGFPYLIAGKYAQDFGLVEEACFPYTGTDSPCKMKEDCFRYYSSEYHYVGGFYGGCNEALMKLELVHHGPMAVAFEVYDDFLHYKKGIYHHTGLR
Sequence of CTSC (P53634 395-463 limits assumed): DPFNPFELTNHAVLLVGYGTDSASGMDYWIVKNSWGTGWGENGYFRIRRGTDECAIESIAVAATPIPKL
T1 sequence (P53634 25-463): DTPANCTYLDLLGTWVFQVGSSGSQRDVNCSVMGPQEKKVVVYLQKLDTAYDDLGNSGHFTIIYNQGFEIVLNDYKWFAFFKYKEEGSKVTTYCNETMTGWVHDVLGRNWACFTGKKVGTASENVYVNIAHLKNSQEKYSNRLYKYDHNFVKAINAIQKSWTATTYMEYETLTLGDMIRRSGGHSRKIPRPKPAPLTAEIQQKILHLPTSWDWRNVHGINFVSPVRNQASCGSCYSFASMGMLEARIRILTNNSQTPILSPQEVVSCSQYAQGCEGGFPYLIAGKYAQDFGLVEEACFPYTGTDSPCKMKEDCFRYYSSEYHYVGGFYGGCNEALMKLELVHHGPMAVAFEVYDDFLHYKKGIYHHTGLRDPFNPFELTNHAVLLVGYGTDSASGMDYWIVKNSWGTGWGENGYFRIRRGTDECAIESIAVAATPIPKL

**Q.** Which IC50 [1] does the source give for `N[C@H]1CONC1=O` [L-Cycloserine, L-cycloserine] here?
**A.** Its IC50 is 1101 ± 2 nM.

**Q.** And the IC50 at 24 h [2]?
**A.** Its IC50 at 24 h is > 10 µM.

**Q.** And the IC50 at 24 h [3]?
**A.** The IC50 at 24 h was > 10 µM.

**Q.** And the IC50 [4]?
**A.** The IC50 was > 5000 nM.

**Q.** What does the source list for `CC1(C)CC[C@]2(C(=O)O)[C@H](O)C[C@]3(C)C(=CC[C@@H]4[C@@]5(C)CC[C@H](O)[C@@](C)(C=O)[C@@H]5CC[C@]43C)[C@@H]2C1` [Quillaic acid, quillaic acid]?
**A.** IC50 [1]: 125 ± 2.9 nM; IC50 at 24 h [2]: > 10 µM; IC50 at 24 h [3]: > 10 µM; IC50 [4]: > 5000 nM

**Q.** For `CN1C2CC(O)CC1C1OC12` (stereo not drawn) [Scopine, scopine], which IC50 [1] is on record?
**A.** The IC50 was 135 ± 4.7 nM.

**Q.** What about the IC50 at 24 h [2] of the same molecule?
**A.** Its IC50 at 24 h is > 10 µM.

**Q.** What about the IC50 at 24 h [3] of the same molecule?
**A.** The IC50 at 24 h was > 10 µM.

**Q.** What about the IC50 [4] of the same molecule?
**A.** The IC50 was 337 ± 1.8 nM.
